Data set [1] relates to Rabbit venous thrombus models. The data set can be described thus: Effect of combined use with antiplatelet drug using rabbit AVST model. It counts as in vivo. The settings on record: alone, dose 0.67 + 1.0 mg/kg + mg/kg/h i.v. As to the method:
Rabbit venous thrombus models were prepared by a modification of the report of Wong et al. (Wong P C. et al., J. Pharmacol. Exp. Ther. 292: 351-357 (2000)). […] A tracheostomy tube was inserted to each rabbit, which was then ventilated using a respirator. For the intravenous administration of a test drug and blood collection, catheters were inserted to the right femoral vein and the right femoral artery, respectively. An arteriovenous shunt filled with saline was inserted to the carotid artery and the jugular vein. […] Also, 4-0 silk thread having a length of 5 cm was indwelled in the arteriovenous shunt. Blood was sent for 30 minutes from the carotid artery to the jugular vein via the arteriovenous shunt. The shunt was removed, and the weight of the silk thread covered with thrombus was measured. The weight of the silk thread measured before the experiment was subtracted from the measured weight, and the obtained value was used as a wet thrombus weight. One hour before the open of the arteriovenous shunt, the test drug or a vehicle was promptly intravenously administered (0.67 mL/kg) and then continuously intravenously administered (1 mL/kg/hr). The continuous injection was continued throughout the experiment. […] STA calcium chloride (manufactured by Roche Diagnostics K.K.) was added in an amount equal thereto, and the time required for coagulation was measured.

Data set [2] deals with Rabbit nail bleeding models. The data set can be described thus: Effect of combined use with antiplatelet drug using rabbit nail bleeding model. It counts as in vivo. The settings on record: alone, dose 0.67 + 1.0 mg/kg + mg/kg/h i.v. As to the method:
Rabbit nail bleeding models were prepared by a modification of the report of Wong et al. (Wong P C. et al., J. Thromb. Haemost. 7: 1313-1320 (2009)). Male rabbits (JW, 1.5 to 3.5 kg) were anesthetized by the inhalation of isoflurane (ISOFLU®, manufactured by DS Pharma Animal Health Co., Ltd.) (introduced anesthesia: 4%, continuous anesthesia: 2 to 3%). For the intravenous administration of a test drug or a vehicle, an indwelling needle was inserted to the auricular vein, and the test drug or the vehicle was promptly intravenously administered (0.67 mL/kg) and then continuously intravenously administered (1 mL/kg/hr). One hour after the start of administration, three posterior toenails were cut and dipped in saline heated to approximately 37° C., and the bleeding time was measured. The bleeding time was defined as a time from the cutting to the arrest of bleeding, and an average value from the three nails was used. The measurement time was 60 minutes at the maximum. If bleeding for 60 minutes or longer was confirmed, the bleeding time was regarded as 60 minutes.

Data set [3] is described as follows: Ester metabolism stability test: stability in human liver. The settings on record: 37° C., 20 minutes, with NADPH. It counts as in vitro ADME. Here is the method: A reaction solution containing 5 μL of human liver S9 (manufactured by Sekisui XenoTech, LLC, 20 mg/mL) mixed with 20 μL of 500 mmol/L Kpi (pH 7.4), 40 μL of a 5 mmol/L aqueous solution of NADPH (manufactured by Oriental Yeast Co., Ltd.), and 133 μL of ion-exchange water was added to 2 μL of a DMSO solution containing a 100 μmol/L test substance, and the mixture was incubated at 37° C. for 20 minutes. After the incubation, the metabolic reaction was terminated by the addition of 600 μL of acetonitrile.

Data set [4] concerns human plasma. Briefly: Ester metabolism stability test: stability in human plasma. The class given is in vitro ADME. The settings on record: 37° C., 20 minutes. Here is the method: 198 μL of human plasma (manufactured by Cosmo Bio Inc.) was added to 2 μL of a DMSO solution containing a 100 μmol/L test substance, and the mixture was incubated at 37° C. for 20 minutes. After the incubation, the metabolic reaction was terminated by the addition of 600 μL of acetonitrile.

Data set [5] in a line: Ester metabolism stability test: metabolite identification by LC-MS. From the text: The metabolites were identified using LC (LC-Nexera X2 manufactured by Shimadzu Corp.)-MS (API4000 manufactured by AB Sciex Pte Ltd.).
For data set [6], the system named is male cynomolgus monkey. Briefly: Cynomolgus monkey aPTT evaluation test. The class given is in vivo. As to the method:
The compound of Example 7 was suspended in a 0.5% aqueous methylcellulose solution, and this suspension was orally administered at a dose of 10 mg/5 mL/kg or 30 mg/5 mL/kg to a male cynomolgus monkey fasted for 16 hours. Blood collection for aPTT evaluation was carried out before administration and 0.5, 1, 2, 4, 6, and 24 hours after administration. 0.9 mL of blood was collected using a syringe packed with 100 μL of 3.2% sodium citrate, transferred to a centrifugal tube cooled in ice, and centrifuged at 2100 g at 4° C. for 10 minutes to prepare plasma. After incubation at 37° C. for 6 minutes, an STA reagent Cephascreen (for aPTT assay; manufactured by Roche Diagnostics K.K.) was added in an amount equal to the amount of the plasma, and the mixture was further incubated for 4 minutes. STA calcium chloride (manufactured by Roche Diagnostics K.K.) was added in an amount equal to the amount of the plasma, and the time required for coagulation was measured. Blood collection for the measurement of the compound concentration was carried out 0.5, 1, 2, 4, 6, and 24 hours after administration. 1 mL of blood was collected using a syringe packed with 10 μL of Novo-Heparin Injection, transferred to a centrifugal tube cooled in ice, and centrifuged at 2100 g at 4° C. for 10 minutes to prepare plasma. 200 μL of the prepared plasma was added to a tube containing 600 μL of acetonitrile and mixed for approximately 10 seconds using a vortex mixer. Then, the concentration of the compound of Reference Example 2-6 (a value based on the free form) was measured.

[7] abbreviates: metabolites identified using LC-MS.
Where [8] appears, read: oral 10 mg/kg, 0 hr (before administration).
Setting [9] is: oral 30 mg/kg, 0 hr (before administration).

`CC(=O)Oc1ccccc1C(=O)O` [Aspirin]: in data set [1], the “PT (ratio)” value was 0.99 ± 0.01 ratio, the Thrombus weight stood at 96 ± 9 mg and the “aPTT (ratio)” value came to 0.97 ± 0.01 ratio. Moreover, the “Bleeding time” value in data set [2] (rabbit, maximum 60 minutes) was 1087 ± 522 s. For the same compound, the “Bleeding time (fold-increase)” value in data set [2] (ratio to vehicle group average) came out at 1.9 ± 0.9 fold-increase.
In the case of `Cl.NC[C@H]1CC[C@H](C(=O)N2CC[C@@H](C3CCCCC3)[C@H]2C(=O)Nc2ccc3c(c2)cc2n3C(CF)(CF)OC2=O)CC1` [Example 18], the “Residual rate (%) Human liver S9” value in data set [3] amounted to 78%. In data set [4], the “Residual rate (%) Human plasma” value is 15%. The “Metabolite formed (conversion by metabolism)” value (shortened to “Metabolite formed”) in data set [5] (human, 20 min, 1 μmol/L) was “converted to the compound of Example 23”.
On to `Cl.N[C@H](CF)[C@H]1CC[C@H](C(=O)N2CC[C@@H](C3CCCCC3)[C@H]2C(=O)Nc2ccc3c(c2)cc2n3C3(CCC3)OC2=O)CC1` [Example 7, (3S)-1-({trans-4-[(1S)-1-amino-2-fluoroethyl]cyclohexyl}carbonyl)-3-cyclohexyl-N-(1′-oxo-1′H-spiro[cyclobutane-1,3′-[1,3]oxazolo[3,4-a]indol]-7′-yl)-L-prolinamide hydrochloride], for which the “Residual rate (%) Human liver S9” value in data set [3] is 71%. For the same compound, the “Residual rate (%) Human plasma” value in data set [4] was <1%. Moreover, the “Metabolite formed” value in data set [5] (setting [7]) was “converted to the compound of Reference Example 2-6”. The “aPTT” value in data set [6] (setting [8]) was determined as 23.8 ± 2.2 s; in data set [6] (oral 10 mg/kg, 0.5 hr), 26.9 ± 3.3 s; in data set [6] (oral 10 mg/kg, 1 hr), 30.5 ± 3.0 s; in data set [6] (oral 10 mg/kg, 2 hr), 36.5 ± 4.1 s; in data set [6] (oral 10 mg/kg, 4 hr), 38.5 ± 3.5 s; in data set [6] (oral 10 mg/kg, 6 hr) it was 37.5 ± 4.5 s. Besides, the “aPTT” value was determined as 26.1 ± 3.2 s in data set [6] (oral 10 mg/kg, 24 hr); 23.9 ± 1.6 s in data set [6] (setting [9]); 27.6 ± 3.2 s in data set [6] (oral 30 mg/kg, 0.5 hr); 32.8 ± 2.8 s in data set [6] (oral 30 mg/kg, 1 hr); 36.9 ± 0.8 s in data set [6] (oral 30 mg/kg, 2 hr); 39.4 ± 1.4 s in data set [6] (oral 30 mg/kg, 4 hr). The “aPTT” value in data set [6] (oral 30 mg/kg, 6 hr) was found to be 39.4 ± 1.5 s; in data set [6] (oral 30 mg/kg, 24 hr), 34.0 ± 3.3 s. The “aPTT (ratio)” value turned out to be 1.00 ± 0.00 ratio in data set [6] (setting [8]); 1.13 ± 0.03 ratio in data set [6] (oral 10 mg/kg, 0.5 hr); 1.29 ± 0.04 ratio in data set [6] (oral 10 mg/kg, 1 hr); 1.53 ± 0.07 ratio in data set [6] (oral 10 mg/kg, 2 hr); 1.62 ± 0.00 ratio in data set [6] (oral 10 mg/kg, 4 hr); 1.57 ± 0.06 ratio in data set [6] (oral 10 mg/kg, 6 hr). Further, the “aPTT (ratio)” value came out at 1.10 ± 0.06 ratio in data set [6] (oral 10 mg/kg, 24 hr); 1.00 ± 0.00 ratio in data set [6] (setting [9]); 1.15 ± 0.10 ratio in data set [6] (oral 30 mg/kg, 0.5 hr); 1.37 ± 0.03 ratio in data set [6] (oral 30 mg/kg, 1 hr); 1.55 ± 0.07 ratio in data set [6] (oral 30 mg/kg, 2 hr); 1.65 ± 0.12 ratio in data set [6] (oral 30 mg/kg, 4 hr). The “aPTT (ratio)” value is reported as 1.65 ± 0.12 ratio in data set [6] (oral 30 mg/kg, 6 hr) and 1.42 ± 0.05 ratio in data set [6] (oral 30 mg/kg, 24 hr).
In the case of `CO[C@H]1CC[C@H]([C@@H]2CCN(C(=O)[C@H]3CC[C@H]([C@H](N)CF)CC3)[C@@H]2C(=O)Nc2ccc3c(c2)cc2n3C(CF)(CF)OC2=O)CC1` [Example 13, (3S)-1-({trans-4-[(1S)-1-amino-2-fluoroethyl]cyclohexyl}carbonyl)-N-[3,3-bis(fluoromethyl)-1-oxo-1H-[1,3]oxazolo[3,4-a]indol-7-yl]-3-(trans-4-methoxycyclohexyl)-L-prolinamide], in data set [3], the “Residual rate (%) Human liver S9” value was 69%. Besides, in data set [4], the “Residual rate (%) Human plasma” value is given as 21%. Further, the “Metabolite formed” value in data set [5] (human, 20 min, 1 μmol/L) is listed as “converted to the compound of Example 24”.
Take `CC1(C)OC(=O)c2cc3cc(NC(=O)[C@@H]4[C@H](N5CCCCC5)CCN4C(=O)[C@H]4CC[C@H]([C@H](N)CF)CC4)ccc3n21` [Example 15, (2S,3R)-1-({trans-4-[(1S)-1-Amino-2-fluoroethyl]cyclohexyl}carbonyl)-N-(3,3-dimethyl-1-oxo-1H-[1,3]oxazolo[3,4-a]indol-7-yl)-3-(piperidin-1-yl)pyrrolidine-2-carboxamide 2-trifluoroacetate]: the “Residual rate (%) Human liver S9” value in data set [3] amounted to 82%. In addition, in data set [4], the “Residual rate (%) Human plasma” value was 14%. For the same compound, the “Metabolite formed” value in data set [5] (human, 20 min, 1 μmol/L) is “Example 25”.
Take `CC1(C)OC(=O)c2cc3cc(NC(=O)[C@@H]4[C@H](C5CCCCC5)CCN4C(=O)[C@H]4CC[C@H](CN)CC4)ccc3n21.Cl` [Example 17, (3S)-1-{[trans-4-(aminomethyl)cyclohexyl]carbonyl}-3-cyclohexyl-N-(3,3-dimethyl-1-oxo-1H-[1,3]oxazolo[3,4-a]indol-7-yl)-L-prolinamide]: the “Residual rate (%) Human liver S9” value in data set [3] was >99%. Further, in data set [4], the “Residual rate (%) Human plasma” value is recorded as 50%. The “Metabolite formed” value in data set [5] (human, 20 min, 1 μmol/L) was “converted to the compound of Example 23”.
The like results for `CO[C@H]1CC[C@H]([C@@H]2CCN(C(=O)[C@H]3CC[C@H]([C@H](N)CF)CC3)[C@@H]2C(=O)Nc2ccc3c(c2)cc2n3C3(CCC3)OC2=O)CC1` [Example 14, (3S)-1-({trans-4-[(1S)-1-amino-2-fluoroethyl]cyclohexyl}carbonyl)-3-(trans-4-methoxycyclohexyl)-N-(1′-oxo-1′H-spiro[cyclobutane-1,3′-[1,3]oxazolo[3,4-a]indol]-7′-yl)-L-prolinamide] were, in that order, 47%, <1% and “converted to the compound of Example 24”.
Turning to `Cl.N[C@H](CF)[C@H]1CC[C@H](C(=O)N2CC[C@@H](C3CCCCC3)[C@H]2C(=O)Nc2ccc3c(c2)cc2n3C(CF)(CF)OC2=O)CC1` [Example 6, (3S)-1-({trans-4-[(1S)-1-amino-2-fluoroethyl]cyclohexyl}carbonyl)-N-[3,3-bis(fluoromethyl)-1-oxo-1H-[1,3]oxazolo[3,4-a]indol-7-yl]-3-cyclohexyl-L-prolinamide hydrochloride], in data set [3], the “Residual rate (%) Human liver S9” value was 67%. Further, in data set [4], the “Residual rate (%) Human plasma” value stood at 7.9%. Moreover, the “Metabolite formed” value in data set [5] (setting [7]) is recorded as “converted to the compound of Reference Example 2-6”.

The values above are taken from patent US9718840B2, “Condensed 5-oxazolidinone derivative” (SUMITOMO DAINIPPON PHARMA CO., LTD., priority 2014, dated 2017).
